Data as given in ChEMBL document CHEMBL3272015, “Cysteine derivatives with reactive groups as potential antitumor agents” (1976).
Calls of active or inactive are those of the source. No cut-off for these calls is given here.

Legend:
TA3 [1] = assay: Induction of growth in mouse TA3 cell at 10^-4 M; assay type: functional, cell-based
TA3 [2] = assay: Antitumor activity against mouse TA3 cells assessed as growth inhibition at 10^-4 M; assay type: functional, cell-based
TA3 [3] = assay: Antitumor activity against mouse TA3 cells assessed as growth inhibition; assay type: functional

Row | Compound | Activity (TA3 [1]) | growth inhibition (GI) (TA3 [2]) | ID50 (TA3 [3])
1 | Cc1ccc([C@@H]2N[C@H](C(=O)O)CS2)cc1 | Active | – | –
2 | CC(=O)N1C(c2ccc(C)cc2)SC(C)(C)C1C(=O)O (centres undefined) | – | inactive | –
3 | CC(=O)N1[C@@H](c2ccc(C)cc2)SC[C@H]1C(=O)C=[N+]=[N-] | – | inactive | –
4 | N[C@@H](CSC(c1ccccc1)(c1ccccc1)c1ccccc1)C(=O)O [S-TRITYL-L-CYSTEINE] | – | – | 6.3 ×10⁻⁷ M
5 | CC(=O)N1[C@@H](c2ccc(C)cc2)SC[C@H]1C(=O)O | inactive | inactive | –
6 | CC(=O)N1[C@@H](c2ccc(C)cc2)SC[C@H]1C(=O)CCl | – | – | 3.2 ×10⁻⁵ M
7 | Cc1ccc(C2NC(C(=O)O)C(C)(C)S2)cc1 (centres undefined) | – | inactive | –
8 | Cc1ccc([C@H]2SC[C@@H](C(=O)O)N2C(=O)C(F)(F)F)cc1 | inactive | – | –
